“And” between values parts separate entries of the source, which are not always exact repeats. Identical values can stand only once.
target: T1, NS3 protease (dengue virus type 3, UniProt A0A0B5JFF1); experiment: Functional biochemical assay to identify treatments for viral infectious disease that targets Dengue virus type 3 NS2B-NS3 protease. Utilizing a direct enzyme activity measurement method, reading the fluorescence intensity is used to characterize the relative potency of inhibitors as IC50.; set-up: species or system Philippines/H87/1956
T1 sequence (A0A0B5JFF1 whole entry): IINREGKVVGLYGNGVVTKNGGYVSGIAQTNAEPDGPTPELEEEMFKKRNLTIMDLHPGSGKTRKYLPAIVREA

Question: For `N=C(N)NCCC[C@H](NC(=O)c1nccs1)C(=O)N[C@@H](CCCCN)C(=O)N[C@@H](C(N)=O)c1ccc(OCc2ccc(C(F)(F)F)cc2)cc1`, which IC50 is on record?
Answer: 2.22 µM (2×) and 2.34 µM and 1.63 µM and 2.19 µM and 2.45 µM and 1.49 µM

Question: Which IC50 does the source give for `N=C(N)NCCC[C@H](NC(=O)[C@H](Cc1ccc(CN)cc1)NC(=O)c1ccccc1)B(O)O` here?
Answer: 0.819 µM and 0.784 µM and 0.98 µM

Question: `COCCNC(=O)[C@H](Nc1ccc2c(c1)CNC2)c1cc(Cl)cc(C2CC2)c1` was tested. Which IC50 did it give?
Answer: 63.4 µM

Question: For `O=C(NCC(F)F)[C@H](Nc1ccc2c(c1)CNC2)c1cc(Cl)cc(C2CC2)c1`, which IC50 is on record?
Answer: 28.5 µM and > 99.5 µM and 23.8 µM

Question: `O=C(Nc1ccc2c(c1)CNCC2)c1cc(Cl)cc2[nH]ncc12` was tested. Which IC50 did it give?
Answer: 93.9 µM

Question: Which IC50 does the source give for `CC(C)(C)c1cc(Br)cc(C(=O)Nc2ccc3c(c2)CNC3)c1` here?
Answer: > 99.5 µM

Question: With `Clc1ccc2[nH]cc(Cc3ccc(-c4nn[nH]n4)cc3)c2c1` as the compound, how does the IC50 read?
Answer: 44.1 µM

Question: For `CN1Cc2ccc(NC(=O)c3cc(Cl)cc4[nH]ncc34)cc2C1`, which IC50 is on record?
Answer: 92.8 µM

Question: Which IC50 does the source give for `O=C(Nc1ccc2c(c1)CNC2)c1cccc(-c2cnco2)c1` here?
Answer: 21.2 µM

Question: With `Cn1cc2cc(Cl)cc(C(=O)Nc3ccc4c(c3)CNC4)c2n1` as the compound, how does the IC50 read?
Answer: > 99.5 µM

Question: For `O=C(Nc1ccc2c(c1)CNC2)c1cc(Br)cc2ccccc12`, which IC50 is on record?
Answer: > 99.5 µM

Question: With `O=C(Nc1ccc2c(c1)CNC2)c1cc(Cl)cc2c1CCC2` as the compound, how does the IC50 read?
Answer: > 99.5 µM

Question: How did the IC50 turn out when `CNC(=O)[C@H](Nc1ccc2c(c1)CNC2)c1cc(Cl)cc(C2CC2)c1` was run?
Answer: > 99.5 µM

Question: Which IC50 does the source give for `O=C1Cc2c(cccc2C(=O)Nc2ccc3c(c2)CNC3)N1` here?
Answer: 14.2 µM

Question: With `N#C[C@H](Nc1ccc2c(c1)CNC2)c1cc(Cl)cc(C2CC2)c1` as the compound, how does the IC50 read?
Answer: > 99.5 µM

Question: For `O=C(Nc1cc(Cl)cc([C@H]2CN(Cc3ccccc3)C[C@@H]2c2cccc(-c3nn[nH]n3)c2)c1)OCc1ccccc1`, which IC50 is on record?
Answer: 6.03 µM

Question: `Clc1cc(CNc2ccc3c(c2)CNC3)c2cn[nH]c2c1` was tested. Which IC50 did it give?
Answer: 42.2 µM

Question: How did the IC50 turn out when `CC(C)c1cc(Br)cc(C(=O)Nc2ccc3c(c2)CNC3)c1` was run?
Answer: > 99.5 µM

Question: How did the IC50 turn out when `O=C(NC1CCOCC1)[C@H](Nc1ccc2c(c1)CNC2)c1cc(Cl)cc(C2CC2)c1` was run?
Answer: 53.4 µM

Question: With `Cn1cc(CNC(=O)[C@H](Nc2ccc3c(c2)CNC3)c2cc(Cl)cc(C3CC3)c2)cn1` as the compound, how does the IC50 read?
Answer: 81.8 µM

Question: `O=C(Nc1cc(Cl)cc(C(=O)Nc2ccc3c(c2)CNC3)c1)OCc1ccccc1` was tested. Which IC50 did it give?
Answer: 72.5 µM

Question: `Cn1cc(CCc2nc3c(C(=O)Nc4ccc5c(c4)CNC5)cc(Cl)cc3[nH]2)cn1` was tested. Which IC50 did it give?
Answer: 23.7 µM

Question: `O=C(Nc1ccc2c(c1)CNC2)c1cc(F)cc2[nH]ncc12` was tested. Which IC50 did it give?
Answer: 23.4 µM

Question: With `Cc1c(C(=O)Nc2cc([C@H]3CCOC3)ccn2)cc(C2CC2)n1C` as the compound, how does the IC50 read?
Answer: > 99.5 µM

Question: `O=C(Nc1ccc2c(c1)CNC2)c1cc(Cl)cc2ccncc12` was tested. Which IC50 did it give?
Answer: 69.8 µM

Question: For `O=C1Cc2c(cc(Br)cc2C(=O)Nc2ccc3c(c2)CNC3)N1`, which IC50 is on record?
Answer: 17.8 µM

Question: How did the IC50 turn out when `CC(C)NC(=O)[C@H](Nc1ccc2c(c1)CNC2)c1cc(Cl)cc2[nH]c(-c3ccccc3)nc12` was run?
Answer: 7.06 µM and 2.21 µM

Question: Which IC50 does the source give for `O=C(Nc1cc(Cl)cc([C@H](C#CCO)Nc2cccc(-c3nn[nH]n3)c2)c1)OCc1ccccc1` here?
Answer: 11.9 µM

Question: How did the IC50 turn out when `O=C(Nc1ccc2c(c1)CNC2)c1cc(Cl)cc2cn[nH]c12` was run?
Answer: 41.9 µM

Question: With `NCc1cccc([C@H]2C[C@@H]2c2cc(Cl)cc(NC(=O)OCc3ccccc3)c2)c1` as the compound, how does the IC50 read?
Answer: 7.85 µM

Question: For `C=CC[C@H]1NCc2cc(NC(=O)c3cccc4c3CC(=O)N4)ccc21`, which IC50 is on record?
Answer: > 99.5 µM

Question: Which IC50 does the source give for `N#C[C@H](Nc1cccc(-c2nn[nH]n2)c1)c1cc(Cl)cc(NC(=O)OCc2ccccc2)c1` here?
Answer: 9.59 µM

Question: `O=C(Nc1ccc2c(c1)CNC2)c1cc(Cl)cc2[nH]ncc12` was tested. Which IC50 did it give?
Answer: 13.4 µM

Question: `O=C(Nc1ccc2c(c1)CNC2)c1cc(Br)cc2[nH]c(=O)[nH]c12` was tested. Which IC50 did it give?
Answer: 21.5 µM

Question: How did the IC50 turn out when `N#C[C@H](Nc1ccc2c(c1)CNC2)c1cc(Cl)cc2[nH]ncc12` was run?
Answer: > 99.5 µM

Question: `O=C(Nc1cc(Cl)cc(C(=O)Nc2cccc([C@H]3C[C@H]3C(=O)O)c2)c1)OCc1ccccc1` was tested. Which IC50 did it give?
Answer: 22.6 µM

Question: Which IC50 does the source give for `Clc1cc([C@@H]2C[C@H]2c2cccc(C3CCNCC3)c2)c2cn[nH]c2c1` here?
Answer: 6.45 µM

Question: With `Cc1c(C(=O)Nc2cc(-c3cccnc3)ccn2)cc(C2CC2)n1C` as the compound, how does the IC50 read?
Answer: 6.22 µM

Question: Which IC50 does the source give for `O=C(NCC(F)F)[C@H](Nc1ccc2c(c1)CNC2)c1cc(F)cc2[nH]ccc12` here?
Answer: > 99.5 µM

Question: How did the IC50 turn out when `Cc1nc2c(C(=O)Nc3ccc4c(c3)CNC4)cc(Cl)cc2[nH]1` was run?
Answer: > 99.5 µM

Question: `O=C(Nc1cc(Cl)cc(-c2ccc3[nH]c(C(=O)O)cc3c2)c1)OCc1ccccc1` was tested. Which IC50 did it give?
Answer: 5 µM

Question: `O=C(NCCC1CC1)[C@H](Nc1ccc2c(c1)CNC2)c1cc(Cl)cc(C2CC2)c1` was tested. Which IC50 did it give?
Answer: > 99.5 µM

Question: `C=CC[C@H]1NCc2cc(NC(=O)c3cc(F)cc4[nH]ncc34)ccc21` was tested. Which IC50 did it give?
Answer: 32.3 µM

Question: `O=C(Nc1cc(Br)c2c(c1)CNC2)c1cc(F)cc2[nH]ncc12` was tested. Which IC50 did it give?
Answer: 15 µM

Question: Which IC50 does the source give for `C=CC[C@H](Nc1cc(Cl)cc(NC(=O)OCc2ccccc2)c1)c1cccc(-c2nn[nH]n2)c1` here?
Answer: 6.43 µM

Question: With `CNC(=O)[C@H](Nc1cc(CN)cc(C(=O)O)c1)c1cc(Cl)cc(C2CC2)c1` as the compound, how does the IC50 read?
Answer: > 99.5 µM

Question: With `O=C(NCC(F)F)[C@H](Nc1ccc2c(c1)CNC2)c1cc(F)cc2[nH]ncc12` as the compound, how does the IC50 read?
Answer: 93.7 µM

Question: How did the IC50 turn out when `O=C1Cc2c(cc(F)cc2C(=O)Nc2ccc3c(c2)CNC3)N1` was run?
Answer: 8.59 µM

Question: With `O=C(Nc1cc(Cl)cc([C@H]2C[C@@H]2c2cccc(C3CCNCC3)c2)c1)OCc1ccccc1` as the compound, how does the IC50 read?
Answer: 4.79 µM

Question: How did the IC50 turn out when `CC(C)CNC(=O)c1cc(Cl)ccc1NS(=O)(=O)c1ccc(Oc2ccccc2Cl)cc1` was run?
Answer: 12.1 µM

Question: With `C=CC[C@H]1NCc2cc(N[C@H](C(=O)NC(C)C)c3cc(Cl)cc4[nH]ncc34)ccc21` as the compound, how does the IC50 read?
Answer: 55.1 µM

Question: `O=C(NC1CCOCC1)[C@H](Nc1ccc2c(c1)CNC2)c1cc(Cl)cc2[nH]ncc12` was tested. Which IC50 did it give?
Answer: 39.5 µM

Question: For `CNC(=O)[C@H](Nc1cc(Cl)cc(NC(=O)OCc2ccccc2)c1)c1cccc(-c2nn[nH]n2)c1`, which IC50 is on record?
Answer: 40.4 µM

Question: How did the IC50 turn out when `O=C(Nc1ccc2c(c1)CNC2)c1cc(F)c2[nH]ccc2c1` was run?
Answer: > 99.5 µM

Question: For `N[C@H]1CC[C@H](c2ccc(NC(=O)c3cc(Cl)cc(NC(=O)OCc4ccccc4)c3)cc2)C1`, which IC50 is on record?
Answer: 5.84 µM

Question: Which IC50 does the source give for `OCC#C[C@H](Nc1ccc2c(c1)CNC2)c1cc(Cl)cc2[nH]ncc12` here?
Answer: 26.2 µM

Question: `NCc1cccc(NC(=O)c2cc(Cl)cc(NC(=O)OCc3ccccc3)c2)c1` was tested. Which IC50 did it give?
Answer: 26.8 µM

Question: With `c1cc(C2CCN(Cc3c[nH]c4ccccc34)CC2)c2ccncc2c1` as the compound, how does the IC50 read?
Answer: > 99.5 µM

Question: For `Cc1cccc(-c2nc3c(C(=O)Nc4ccc5c(c4)CNC5)cc(Cl)cc3[nH]2)c1O`, which IC50 is on record?
Answer: 4.44 µM

Question: For `CNC(=O)[C@H](Nc1cccc(CN)c1)c1cc(Cl)cc(NC(=O)OCc2ccccc2)c1`, which IC50 is on record?
Answer: > 99.5 µM

Question: Which IC50 does the source give for `O=C(Nc1ccc2c(c1)CNC2)c1cccc2[nH]c(=O)[nH]c12` here?
Answer: 40.8 µM

Question: How did the IC50 turn out when `CCc1cc(C(=O)Nc2cccc(-n3nn[nH]c3=O)c2)sc1-c1ccc(Cl)cc1` was run?
Answer: 11.9 µM

Question: For `Cc1c(C(=O)Nc2cc(CCCN)ccn2)cc(C2CC2)n1C`, which IC50 is on record?
Answer: 34.5 µM

Question: With `NCc1ccc([C@H]2C[C@@H]2c2cc(Cl)cc(NC(=O)OCc3ccccc3)c2)cc1` as the compound, how does the IC50 read?
Answer: 6.85 µM

Question: For `CCOCCNC(=O)[C@H](Nc1ccc2c(c1)CNC2)c1cc(Cl)cc2[nH]ncc12`, which IC50 is on record?
Answer: > 99.5 µM

Question: Which IC50 does the source give for `O=C(Nc1cc(Cl)cc(C(=O)Nc2ccc3c(c2)CCNC3)c1)OCc1ccccc1` here?
Answer: 24.4 µM

Question: `Cc1ccc(NC(=O)c2cc(Cl)cc(NC(=O)OCc3ccccc3)c2)cc1CN` was tested. Which IC50 did it give?
Answer: 57.7 µM

Question: With `O=C(Nc1ccc2c(c1)CNC2)c1cc(F)cc2[nH]c(-c3ccccc3)nc12` as the compound, how does the IC50 read?
Answer: 3.57 µM

Question: Which IC50 does the source give for `O=C(Nc1ccc2c(c1)CNC2)c1cc(Cl)cc2nn(-c3ccccc3)nc12` here?
Answer: 4.73 µM

Question: For `Cc1[nH]c2ccccc2c1CN1CCC(c2c[nH]c3ncccc23)CC1`, which IC50 is on record?
Answer: > 99.5 µM

Question: For `CNC(=O)[C@H](Nc1cc(CN)cc(-c2nn[nH]n2)c1)c1cc(Cl)cc(C2CC2)c1`, which IC50 is on record?
Answer: > 99.5 µM

Question: How did the IC50 turn out when `O=C(Nc1cc(Cl)cc(C(=O)Nc2cccc(-n3nn[nH]c3=O)c2)c1)OCc1ccccc1` was run?
Answer: 10.5 µM
